Test results: US12655116B2, “Substituted isophthalic acid diamides” (Bayer Aktiengesellschaft, priority 2020, dated 2026)

Key:
[1] = test system: POLCO; test: Pre-emergence herbicidal action against POLCO; assay type: in vivo, Polygonum convolvulus; settings: Fallopia convolvulus, 504 h
In short: (§1)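 Herbicidal effect was assessed 3 weeks after treatment by visual comparison with untreated controls, 100% denoting dead plants. Aqueous WP or EC preparations had been applied at 600 to 800 l/ha with 0.2% wetting agent to the soil covering freshly sown seeds.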

[2] = test system: LOLRI; test: Pre-emergence herbicidal action against LOLRI; assay type: in vivo, Lolium rigidum; settings: Lolium rigidum, 504 h
In short: as §1

[3] = test system: AMARE; test: Post-emergence herbicidal action against AMARE; assay type: in vivo, Amaranthus retroflexus; settings: Amaranthus retroflexus, 504 h, visual assessment about 3 weeks after treatment, 100% = plants have died, 0% = like control plants
In short: (§2)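 Herbicidal effect was scored visually in percent after about 3 weeks in the greenhouse. Plants had been raised in sandy loam and treated post-emergence at the one-leaf stage with formulated compound at 600 to 800 l/ha water plus 0.2% wetting agent.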

[4] = test system: AVEFA; test: Pre-emergence herbicidal action against AVEFA; assay type: in vivo, Avena fatua; settings: Avena fatua, 504 h, pre-emergence
In short: as §1

[5] = test system: ABUTH; test: Post-emergence herbicidal action against ABUTH; assay type: in vivo, Abutilon theophrasti; settings: Abutilon theophrasti, 504 h, visual assessment about 3 weeks after treatment vs untreated controls; for pest or weed control at 20 g/ha: dosage 20 g/ha
In short: as §2

[6] = test system: AMARE; test: Pre-emergence herbicidal action against AMARE; assay type: in vivo, Amaranthus retroflexus; settings: Amaranthus retroflexus, 504 h, 100% = plants have died, 0% = like control plants; for pest or weed control at 20 g/ha / pest or weed control at 80 g/ha: scored visually after 3 weeks vs untreated controls
In short: as §1

[7] = test system: ABUTH; test: Pre-emergence herbicidal action against ABUTH; assay type: in vivo, Abutilon theophrasti; settings: Abutilon theophrasti, 504 h; for pest or weed control at 80 g/ha: scored visually after 3 weeks vs untreated controls (100% = plants have died, 0% = like control plants); for pest or weed control at 20 g/ha: dosage 20 g/ha, scored visually after 3 weeks vs untreated controls, read-out: Pre-emergence action against ABUTH (herbicidal activity in percent)
In short: as §1

[8] = test system: HORMU; test: Pre-emergence herbicidal action against HORMU; assay type: in vivo, Hordeum murinum
In short: as §1

[9] = test system: POLCO; test: Post-emergence herbicidal action against POLCO; assay type: in vivo, Polygonum convolvulus; settings: Fallopia convolvulus, 504 h, dosage 20 g/ha
In short: as §2

[10] = test system: ALOMY; test: Post-emergence herbicidal action against ALOMY; assay type: in vivo, Alopecurus myosuroides; settings: Alopecurus myosuroides, 504 h, visual assessment about 3 weeks after treatment vs untreated controls
In short: as §2

[11] = test system: ECHCG; test: Post-emergence herbicidal action against ECHCG; assay type: in vivo, Echinochloa crus-galli; settings: Echinochloa crus-galli, 504 h
In short: as §2

[12] = test system: VERPE; test: Pre-emergence herbicidal action against VERPE; assay type: in vivo, Veronica persica; settings: Veronica persica, 504 h; for pest or weed control at 80 g/ha: dosage 80 g/ha
In short: as §1

[13] = test system: ALOMY; test: Pre-emergence herbicidal action against ALOMY; assay type: in vivo, Alopecurus myosuroides; settings: Alopecurus myosuroides, 504 h, pre-emergence; for pest or weed control at 80 g/ha: scored visually after 3 weeks vs untreated controls (100% = plants have died, 0% = like control plants)
In short: as §1

[14] = test system: SETVI; test: Post-emergence herbicidal action against SETVI; assay type: in vivo, Setaria viridis; settings: Setaria viridis, 504 h
In short: as §2

[15] = test system: HORMU; test: Post-emergence herbicidal action against HORMU; assay type: in vivo, Hordeum murinum; settings: Hordeum murinum, 504 h, dosage 20 g/ha
In short: as §2

[16] = test system: VIOTR; test: Post-emergence herbicidal action against VIOTR; assay type: in vivo, Viola tricolor; settings: Viola tricolor, 504 h
In short: as §2

[17] = test system: STEME; test: Pre-emergence herbicidal action against STEME; assay type: in vivo, Stellaria media; settings: Stellaria media, 504 h; for pest or weed control at 20 g/ha: dosage 20 g/ha; for pest or weed control at 80 g/ha: dosage 80 g/ha
In short: as §1

[18] = test system: ECHCG; test: Pre-emergence herbicidal action against ECHCG; assay type: in vivo, Echinochloa crus-galli; settings: Echinochloa crus-galli, 504 h
In short: as §1

[19] = test system: SETVI; test: Pre-emergence herbicidal action against SETVI; assay type: in vivo, Setaria viridis; settings: Setaria viridis, 504 h; for pest or weed control at 80 g/ha: dosage 80 g/ha
In short: as §1

[20] = test system: VERPE; test: Post-emergence herbicidal action against VERPE; assay type: in vivo, Veronica persica; settings: Veronica persica, 504 h
In short: as §2

[21] = test system: VIOTR; test: Pre-emergence herbicidal action against VIOTR; assay type: in vivo, Viola tricolor; settings: Viola tricolor, 504 h; for pest or weed control at 80 g/ha: dosage 80 g/ha
In short: as §1

[22] = scored visually after 3 weeks, 100% = plants have died, 0% = like control plants
[23] = 100% = plants have died, 0% = like control plants
[24] = Hordeum murinum, 504 h, pre-emergence
[25] = 20 g/ha, scored visually after 3 weeks, 100% = plants have died, 0% = like control plants
[26] = 320 g/ha, scored visually after 3 weeks, 100% = plants have died, 0% = like control plants

**Q.** With `CCn1nnnc1NC(=O)c1ccc(Cl)c(C(=O)NC2CC2)c1Cl` [Example 2-173] as the compound, how does the pest or weed control at 20 g/ha ([1]; dosage 20 g/ha) read?
**A.** 90%

**Q.** And the pest or weed control at 80 g/ha ([1]; dosage 80 g/ha)?
**A.** 100%

**Q.** And the pest or weed control at 80 g/ha [2]?
**A.** 90%

**Q.** What about the pest or weed control at 20 g/ha [3] of the same compound?
**A.** 100%

**Q.** What about the pest or weed control at 80 g/ha [4] of the same compound?
**A.** 100%

**Q.** And the pest or weed control at 20 g/ha [4, 22]?
**A.** 90%

**Q.** What about the pest or weed control at 5 g/ha ([5]; dosage 5 g/ha) of the same compound?
**A.** 90%

**Q.** And the pest or weed control at 20 g/ha [5]?
**A.** 100%

**Q.** And the pest or weed control at 20 g/ha [6]?
**A.** 100%

**Q.** What about the pest or weed control at 80 g/ha [6] of the same compound?
**A.** 100%

**Q.** What about the pest or weed control at 80 g/ha [7] of the same compound?
**A.** 100%

**Q.** What about the pest or weed control at 20 g/ha [7, 23] of the same compound?
**A.** 90%

**Q.** And the pest or weed control at 80 g/ha [8, 24]?
**A.** 100%

**Q.** What about the pest or weed control at 20 g/ha [9] of the same compound?
**A.** 90%

**Q.** What about the pest or weed control at 20 g/ha ([10]; dosage 20 g/ha) of the same compound?
**A.** 100%

**Q.** And the pest or weed control at 5 g/ha ([11]; dosage 5 g/ha)?
**A.** 80%

**Q.** What about the pest or weed control at 20 g/ha ([11]; dosage 20 g/ha) of the same compound?
**A.** 90%

**Q.** What about the pest or weed control at 80 g/ha [12] of the same compound?
**A.** 80%

**Q.** What about the pest or weed control at 80 g/ha [13] of the same compound?
**A.** 100%

**Q.** What about the pest or weed control at 20 g/ha [13, 25] of the same compound?
**A.** 100%

**Q.** What about the pest or weed control at 5 g/ha ([14]; dosage 5 g/ha) of the same compound?
**A.** 100%

**Q.** And the pest or weed control at 20 g/ha ([14]; dosage 20 g/ha)?
**A.** 100%

**Q.** And the pest or weed control at 20 g/ha [15]?
**A.** 100%

**Q.** What about the pest or weed control at 20 g/ha ([16]; 20 g/ha) of the same compound?
**A.** 100%

**Q.** What about the pest or weed control at 20 g/ha [17] of the same compound?
**A.** 100%

**Q.** What about the pest or weed control at 80 g/ha [17] of the same compound?
**A.** 100%

**Q.** What about the pest or weed control at 80 g/ha [18] of the same compound?
**A.** 100%

**Q.** What about the pest or weed control at 80 g/ha [19] of the same compound?
**A.** 100%

**Q.** And the pest or weed control at 20 g/ha [20]?
**A.** 80%

**Q.** And the pest or weed control at 80 g/ha [21]?
**A.** 100%

**Q.** `CCn1nnnc1NC(=O)c1ccc(C(F)(F)F)c(C(=O)NC(C)=O)c1Cl` [Example 2-337] was tested. Which pest or weed control at 320 g/ha ([1]; dosage 320 g/ha) did it give?
**A.** 80%

**Q.** What about the pest or weed control at 80 g/ha [2] of the same compound?
**A.** 80%

**Q.** What about the pest or weed control at 320 g/ha ([2]; 320 g/ha) of the same compound?
**A.** 90%

**Q.** What about the pest or weed control at 20 g/ha [3] of the same compound?
**A.** 100%

**Q.** And the pest or weed control at 80 g/ha ([3]; 80 g/ha)?
**A.** 100%

**Q.** What about the pest or weed control at 80 g/ha [4] of the same compound?
**A.** 100%

**Q.** What about the pest or weed control at 20 g/ha [4, 22] of the same compound?
**A.** 90%

**Q.** And the pest or weed control at 320 g/ha [4, 26]?
**A.** 100%

**Q.** And the pest or weed control at 20 g/ha [5]?
**A.** 100%

**Q.** What about the pest or weed control at 80 g/ha ([5]; dosage 80 g/ha) of the same compound?
**A.** 100%

**Q.** What about the pest or weed control at 20 g/ha [6] of the same compound?
**A.** 90%

**Q.** What about the pest or weed control at 80 g/ha [6] of the same compound?
**A.** 100%

**Q.** What about the pest or weed control at 320 g/ha ([6]; 320 g/ha, scored visually after 3 weeks) of the same compound?
**A.** 100%

**Q.** What about the pest or weed control at 80 g/ha [7] of the same compound?
**A.** 100%

**Q.** And the pest or weed control at 320 g/ha ([7]; Dosage: 320 g/ha, scored visually after 3 weeks, 100% = plants have died, 0% = like control plants)?
**A.** 100%

**Q.** What about the pest or weed control at 20 g/ha [7, 23] of the same compound?
**A.** 100%

**Q.** And the “Pre-emergence action against HORMU” value [8, 25]?
**A.** 90%

**Q.** And the pest or weed control at 80 g/ha [8, 24]?
**A.** 90%

**Q.** And the pest or weed control at 320 g/ha ([8]; Hordeum murinum, 504 h, 320 g/ha, pre-emergence)?
**A.** 100%

**Q.** And the pest or weed control at 80 g/ha ([10]; dosage 80 g/ha)?
**A.** 90%

**Q.** What about the pest or weed control at 80 g/ha ([11]; dosage 80 g/ha) of the same compound?
**A.** 90%

**Q.** What about the pest or weed control at 20 g/ha ([12]; dosage 20 g/ha) of the same compound?
**A.** 80%

**Q.** What about the pest or weed control at 80 g/ha [12] of the same compound?
**A.** 90%

**Q.** And the pest or weed control at 320 g/ha ([12]; dosage 320 g/ha)?
**A.** 90%

**Q.** And the pest or weed control at 80 g/ha [13]?
**A.** 90%

**Q.** And the pest or weed control at 320 g/ha [13, 26]?
**A.** 100%

**Q.** What about the pest or weed control at 80 g/ha ([16]; 80 g/ha) of the same compound?
**A.** 90%

**Q.** And the pest or weed control at 20 g/ha [17]?
**A.** 90%

**Q.** And the pest or weed control at 80 g/ha [17]?
**A.** 90%

**Q.** What about the pest or weed control at 320 g/ha ([17]; dosage 320 g/ha) of the same compound?
**A.** 100%

**Q.** And the pest or weed control at 20 g/ha ([18]; 20 g/ha)?
**A.** 80%

**Q.** What about the pest or weed control at 80 g/ha [18] of the same compound?
**A.** 100%

**Q.** What about the pest or weed control at 320 g/ha ([18]; 320 g/ha) of the same compound?
**A.** 100%

**Q.** And the pest or weed control at 20 g/ha ([19]; dosage 20 g/ha)?
**A.** 90%

**Q.** What about the pest or weed control at 80 g/ha [19] of the same compound?
**A.** 100%

**Q.** What about the pest or weed control at 320 g/ha ([19]; dosage 320 g/ha) of the same compound?
**A.** 100%

**Q.** And the pest or weed control at 5 g/ha ([20]; 5 g/ha)?
**A.** 80%

**Q.** What about the pest or weed control at 20 g/ha [20] of the same compound?
**A.** 100%

**Q.** And the pest or weed control at 80 g/ha ([20]; 80 g/ha)?
**A.** 100%

**Q.** And the pest or weed control at 20 g/ha ([21]; dosage 20 g/ha)?
**A.** 90%

**Q.** And the pest or weed control at 80 g/ha [21]?
**A.** 100%

**Q.** And the pest or weed control at 320 g/ha ([21]; dosage 320 g/ha)?
**A.** 100%
